Eleven compounds from patent US20080221116A1, “ISOXAZOLINE ALPHA 1a/1d ADRENORECEPTOR ANTAGONISTS” (priority 2006, published 2008) can be followed below.

Structures are written as SMILES. pKi: −log10 of the molar value. Where “and” joins values, the source holds several entries; their conditions need not be identical. Equal values may be shown once. Read-outs that look alike come from different tables or passages of the source.

What all share (details): COS-7 membranes
One experiment addresses T1, α1d-AR (Homo sapiens, UniProt P25100).
T1 construct: expressed in transfected cells; host or cells: COS-7 cells (African Green monkey kidney), membranes
T1 sequence (P25100 1-572): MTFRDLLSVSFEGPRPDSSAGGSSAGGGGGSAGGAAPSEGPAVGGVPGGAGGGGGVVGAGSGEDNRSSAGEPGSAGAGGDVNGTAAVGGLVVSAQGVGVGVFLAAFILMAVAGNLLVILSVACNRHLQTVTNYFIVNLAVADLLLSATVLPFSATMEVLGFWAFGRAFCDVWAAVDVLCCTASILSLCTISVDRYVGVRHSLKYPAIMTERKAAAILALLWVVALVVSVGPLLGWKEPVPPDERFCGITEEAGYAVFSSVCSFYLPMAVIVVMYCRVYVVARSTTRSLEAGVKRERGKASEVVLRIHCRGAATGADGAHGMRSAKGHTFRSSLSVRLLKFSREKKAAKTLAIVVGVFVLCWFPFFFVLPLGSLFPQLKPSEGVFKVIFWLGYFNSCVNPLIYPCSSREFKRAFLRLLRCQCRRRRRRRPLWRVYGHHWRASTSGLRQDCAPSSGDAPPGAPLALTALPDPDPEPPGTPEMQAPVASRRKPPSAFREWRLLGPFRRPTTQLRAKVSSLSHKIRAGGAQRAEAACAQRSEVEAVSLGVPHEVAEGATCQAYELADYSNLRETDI
As to the kind of experiment: α1-Adrenergic Receptor Binding Assay, 125I-HEAT radio-ligand binding, transfected COS-7 cell membranes, α1d subtype. Here is the method: (§1) Membranes were prepared from COS-7 cells (African Green monkey kidney SV40-transformed cells) that had been transfected with one of the three α1-AR subtypes by the following method: COS cells from ten 100 mm tissue culture plates were scraped into a 5 ml volume of TE (a mixture of 50 mM tris(hydroxymethyl)aminomethane hydrochloride (Tris-HCl) and 5 mM ethylenediaminetetraacetic acid (EDTA) at pH 7.4). The cell suspension was disrupted with a Brinkman Polytron (at a setting of 8) for 10 sec. The disrupted cells were centrifuged at 1000×g for 10 min at 4° C. Supernatants were centrifuged at 34,500×g for 20 min at 4° C. The membrane pellets were suspended in a 2 ml volume of TNE (a mixture of 50 mM Tris-HCl, 5 mM EDTA and 150 mM NaCl at pH7.4). An aliquot of the membrane suspension was stored at −70° C. until use. The protein concentration was determined using a BioRad “DC” protein assay kit following membrane solubilization with Triton X-100.
(§2) Triplicate determinations of radio-ligand binding in the presence of increasing concentrations of testing compound were made. The reagents were added to 96-well polypropylene plate wells. Each assay well contained 140 μL TNE, 25 μL 125′-2-(β-4-hydroxyphenyl)ethylaminomethyltetralone (^125I-HEAT) (specific activity 2200 Ci/mmol, Dupont-New England Nuclear, […] final), 10 μL testing compound dissolved in dimethyl sulfoxide (DMSO) ([…] to 10 μM in half-log increments, final), and 25 μL appropriate α1-AR membrane subtype suspension in TNE (0.5 ng/μL for the α1a and α1b subtypes and 13 ng/μL for the α1d subtype). The plate was incubated at rt for 1 hr. The contents of the wells were filtered through a glass filter (type C) (GF/C) membrane Unifilter plate (Packard Instruments) using the Packard Filtermate cell harvester. The filter plates were dried in a vacuum oven for 30 min at 40° C. 25 μL Microscint 20 liquid scintillation fluid (Packard Instuments) was added to each well. The radioactive content was analyzed in the TopCount microplate scintillation counter (Packard Instruments).
(§3) The Ki values (in nM) shown in Table 1 were determined using GraphPad Prism software.

The target of a further experiment is T2, α1a-AR (Homo sapiens, UniProt P35348).
T2 construct: expressed in transfected cells; host or cells: COS-7 cells (African Green monkey kidney), membranes
T2 sequence (P35348 1-466): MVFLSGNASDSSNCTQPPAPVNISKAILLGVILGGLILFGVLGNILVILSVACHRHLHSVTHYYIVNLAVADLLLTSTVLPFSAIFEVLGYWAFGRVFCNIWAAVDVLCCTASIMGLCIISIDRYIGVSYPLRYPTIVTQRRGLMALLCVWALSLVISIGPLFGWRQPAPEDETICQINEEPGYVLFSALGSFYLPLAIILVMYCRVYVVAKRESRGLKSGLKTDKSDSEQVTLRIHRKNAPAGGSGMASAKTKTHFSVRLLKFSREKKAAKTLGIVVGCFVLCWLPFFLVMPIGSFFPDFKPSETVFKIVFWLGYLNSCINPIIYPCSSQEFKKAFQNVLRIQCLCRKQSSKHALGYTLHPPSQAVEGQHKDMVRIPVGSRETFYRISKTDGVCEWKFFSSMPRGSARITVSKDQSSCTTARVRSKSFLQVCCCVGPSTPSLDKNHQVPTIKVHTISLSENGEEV
As to the kind of experiment: α1-Adrenergic Receptor Binding Assay, 125I-HEAT radio-ligand binding, transfected COS-7 cell membranes, α1a subtype. Here is the method: as §1, §2, §3

A further experiment concerns the target T3, α1b-AR (Homo sapiens, UniProt P35368).
T3 construct: expressed in transfected cells; host or cells: COS-7 cells (African Green monkey kidney), membranes
T3 sequence (P35368 1-520): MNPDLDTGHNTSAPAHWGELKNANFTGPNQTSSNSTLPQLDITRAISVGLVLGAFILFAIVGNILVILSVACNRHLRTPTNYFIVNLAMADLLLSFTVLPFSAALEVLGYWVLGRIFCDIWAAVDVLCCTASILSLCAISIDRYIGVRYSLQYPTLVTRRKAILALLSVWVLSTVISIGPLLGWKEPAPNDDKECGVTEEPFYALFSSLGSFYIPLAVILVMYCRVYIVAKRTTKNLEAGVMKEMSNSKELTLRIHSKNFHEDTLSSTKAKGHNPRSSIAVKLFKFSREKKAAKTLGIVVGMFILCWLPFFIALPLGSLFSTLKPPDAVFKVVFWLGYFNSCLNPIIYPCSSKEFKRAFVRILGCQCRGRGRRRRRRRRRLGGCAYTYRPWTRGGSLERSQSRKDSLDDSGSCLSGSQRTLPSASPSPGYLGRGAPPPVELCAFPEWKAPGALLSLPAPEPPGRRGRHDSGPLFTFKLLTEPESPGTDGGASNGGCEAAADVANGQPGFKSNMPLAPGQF
As to the kind of experiment: α1-Adrenergic Receptor Binding Assay, 125I-HEAT radio-ligand binding, transfected COS-7 cell membranes, α1b subtype. Here is the method: as §1, §2, §3

The mark [1] stands for this setting: average value, read-out: Alpha 1 Ki α1d (1) Average Value.
Where [2] appears, read: individual values, read-out: Alpha 1 Ki α1d (2) Individual Values.
Where [3] appears, read: average value, read-out: Alpha 1 Ki α1a (1) Average Value.
Setting [4] is: individual values, read-out: Alpha 1 Ki α1a (2) Individual Values.
The mark [5] stands for this setting: average value, read-out: Alpha 1 Ki α1b (1) Average Value.
The mark [6] stands for this setting: individual values, read-out: Alpha 1 Ki α1b (2) Individual Values.

As a reminder, the pKi is the negative decadic logarithm of the Ki, by convention in mol/L. `CC(C)Oc1ccccc1N1CCN(CC2CC(C(=O)N3CCCCC3)=NO2)CC1` (centres unmarked) [Compound 12, {5-[4-(2-isopropoxy-phenyl)-piperazin-1-ylmethyl]-4,5-dihydro-isoxazol-3-yl}-piperidin-1-yl-methanone]: the pKi at α1d-AR (setting [1]) was 7.75; on α1d-AR (setting [2]) it was 7.54 and 7.74 and 8.20; at α1a-AR (setting [3]), 8.74; at α1a-AR (setting [4]) it was 8.99 and 8.77 and 8.57; at α1b-AR (setting [5]), 6.60; on α1b-AR (setting [6]), 6.48 and 6.76 and 6.62.
In the case of `CC(C)Oc1ccccc1N1CCN(CC2CC(C(=O)N3CCc4cc(Br)ccc43)=NO2)CC1` (centres unmarked) [Compound 13, (5-bromo-2,3-dihydro-indol-1-yl)-{5-[4-(2-isopropoxy-phenyl)-piperazin-1-ylmethyl]-4,5-dihydro-isoxazol-3-yl}-methanone], the negative logarithm of the Ki (pKi) on α1d-AR (setting [1]) is 8.22; at α1a-AR (setting [3]), 8.61; on α1a-AR (setting [4]), 8.88 and 8.62 and 8.43 and 8.60; at α1b-AR (setting [5]) it was 6.72; at α1b-AR (setting [6]), 6.40 and 6.83 and 6.87 and 7.08.
Consider `CC(C)Oc1ccccc1N1CCN(CC2CC(C(=O)N3CCc4ccc(N)cc43)=NO2)CC1` (centres unmarked) [Compound 14, (6-amino-2,3-dihydro-indol-1-yl)-{5-[4-(2-isopropoxy-phenyl)-piperazin-1-ylmethyl]-4,5-dihydro-isoxazol-3-yl}-methanone], for which the pKi on α1d-AR (setting [1]) is 8.55; on α1d-AR (setting [2]), 8.55; on α1a-AR (setting [3]) it was 8.70; at α1a-AR (setting [4]) it was 8.70; on α1b-AR (setting [5]), 6.85; on α1b-AR (setting [6]) it was 6.85.
Consider `CC(C)Oc1ccccc1N1CCN(CC2CC(C(=O)N3CCc4ccc(NCc5ccccc5F)cc43)=NO2)CC1` (centres unmarked) [Compound 15, [6-(2-fluoro-benzylamino)-2,3-dihydro-indol-1-yl]-{5-[4-(2-isopropoxy-phenyl)-piperazin-1-ylmethyl]-4,5-dihydro-isoxazol-3-yl}-methanone], for which the negative-log Ki (pKi) at α1d-AR (setting [1]) was 7.94; on α1d-AR (setting [2]), 7.94; at α1a-AR (setting [3]), 8.02; at α1a-AR (setting [4]), 8.02; at α1b-AR (setting [5]), 6.89; at α1b-AR (setting [6]), 6.89.
For the compound `CC(C)Oc1ccccc1N1CCN(CC2CC(C(=O)N3CCc4cc(Cl)ccc43)=NO2)CC1` (centres unmarked) [Compound 16, (5-chloro-2,3-dihydro-indol-1-yl)-{5-[4-(2-isopropoxy-phenyl)-piperazin-1-ylmethyl]-4,5-dihydro-isoxazol-3-yl}-methanone], the pKi was 8.33 on α1d-AR (setting [1]); 8.33 at α1d-AR (setting [2]); 8.08 at α1a-AR (setting [3]); 8.08 at α1a-AR (setting [4]); 6.88 at α1b-AR (setting [5]); 6.88 at α1b-AR (setting [6]).
Consider `CC(C)Oc1ccccc1N1CCN(CC2CC(C(=O)N3CCN(c4ccccc4OC(C)C)CC3)=NO2)CC1` (centres unmarked) [Compound 17, [4-(2-isopropoxy-phenyl)-piperazin-1-yl]-{5-[4-(2-isopropoxy-phenyl)-piperazin-1-ylmethyl]-4,5-dihydro-isoxazol-3-yl}-methanone], for which the pKi at α1d-AR (setting [1]) is 8.18; at α1d-AR (setting [2]), 8.18; at α1a-AR (setting [3]) it was 7.79; on α1a-AR (setting [4]), 7.79; on α1b-AR (setting [5]), 6.73; on α1b-AR (setting [6]) it was 6.73.
`CC(C)Oc1ccccc1N1CCN(CC2CC(C(=O)N3CCC(C(=O)c4ccc(F)cc4)CC3)=NO2)CC1` (centres unmarked) [Compound 18, [4-(4-fluoro-benzoyl)-piperidin-1-yl]-{5-[4-(2-isopropoxy-phenyl)-piperazin-1-ylmethyl]-4,5-dihydro-isoxazol-3-yl}-methanone]: the pKi was 7.67 on α1d-AR (setting [1]); 7.66 and 7.68 at α1d-AR (setting [2]); 8.10 on α1a-AR (setting [3]); 8.00 and 8.23 on α1a-AR (setting [4]); 6.37 at α1b-AR (setting [5]); 6.37 on α1b-AR (setting [6]).
As for `CC(C)Oc1ccccc1N1CCN(CC2CC(C(=O)N3CC(C)(C)c4cc(Br)ccc43)=NO2)CC1` (centres unmarked) [Compound 19, (5-bromo-3,3-dimethyl-2,3-dihydro-indol-1-yl)-{5-[4-(2-isopropoxy-phenyl)-piperazin-1-ylmethyl]-4,5-dihydro-isoxazol-3-yl}-methanone], the pKi is 9.22 at α1d-AR (setting [1]); 9.40 and 9.10 at α1d-AR (setting [2]); 7.89 at α1a-AR (setting [3]); 7.89 on α1a-AR (setting [4]); 6.55 at α1b-AR (setting [5]); 6.52 and 6.59 on α1b-AR (setting [6]).
In the case of `CC(C)Oc1ccccc1N1CCN(CC2CC(C(=O)N3CCc4cc(F)ccc43)=NO2)CC1` (centres unmarked) [Compound 20, (5-fluoro-2,3-dihydro-indol-1-yl)-{5-[4-(2-isopropoxy-phenyl)-piperazin-1-ylmethyl]-4,5-dihydro-isoxazol-3-yl}-methanone], the pKi is 9.21 at α1d-AR (setting [1]); 9.84 and 8.96 at α1d-AR (setting [2]); 8.65 at α1a-AR (setting [3]); 8.87 and 8.51 at α1a-AR (setting [4]); 6.95 at α1b-AR (setting [5]); 7.01 and 6.90 at α1b-AR (setting [6]).
`CC(C)Oc1ccccc1N1CCN(CC2CC(C(=O)N3CCC(C(=O)c4ccccc4)CC3)=NO2)CC1` (centres unmarked) [Compound 21, (4-benzoyl-piperidin-1-yl)-{5-[4-(2-isopropoxy-phenyl)-piperazin-1-ylmethyl]-4,5-dihydro-isoxazol-3-yl}-methanone]: the negative-log Ki (pKi) on α1d-AR (setting [1]) is 8.12; at α1d-AR (setting [2]) it was 8.26 and 8.01; at α1a-AR (setting [3]), 8.28; at α1a-AR (setting [4]), 8.49 and 8.14; on α1b-AR (setting [5]) it was 6.65; on α1b-AR (setting [6]), 6.54 and 6.80.
In the case of `CC(=O)N1CCc2cc(NC(=O)C3=NOC(CN4CCN(c5ccccc5OC(C)C)CC4)C3)ccc21` (centres unmarked) [Compound 22, 5-[4-(2-isopropoxy-phenyl)-piperazin-1-ylmethyl]-4,5-dihydro-isoxazole-3-carboxylic acid (1-acetyl-2,3-dihydro-1H-indol-5-yl)-amide], the pKi at α1d-AR (setting [1]) is 8.74; on α1d-AR (setting [2]), 8.82 and 8.67; on α1a-AR (setting [3]), 8.69; at α1a-AR (setting [4]), 8.60 and 8.82; at α1b-AR (setting [5]), 7.10; at α1b-AR (setting [6]) it was 7.14 and 7.06.
